# Data published in patent publication US8012991B2, “Pyridoindolone derivatives substituted in the 3-position by a phenyl, their preparation and their application in therapeutics” (Sanofi-Aventis, priority 2002, dated 2011).
row,melting point [°C],Compound
1,210,"Cc1cc(C)cc(-c2cc3c4cc(C)ccc4n(C)c3n(C)c2=O)c1 [Compound 1, 3-(3,5-Dimethylphenyl)-1,6,9-trimethyl-1,9-dihydro-2H-pyrido[2,3-b]indol-2-one]"
2,170,"Cc1ccc2c(c1)c1cc(-c3ccc(Cl)cc3Cl)c(=O)n(C)c1n2C [Compound 2, 3-(2,4-Dichlorophenyl)-1,6,9-trimethyl-1,9-dihydro-2H-pyrido[2,3-b]indol-2-one]"
3,130,"COc1ccc2c(c1)c1cc(-c3ccc(Cl)cc3Cl)c(=O)n(C)c1n2C [Compound 21, 3-(2,4-Dichlorophenyl)-6-methoxy-1,9-dimethyl-1,9-dihydro-2H-pyrido[2,3-b]indol-2-one]"
